Test results as given in patent publication US20190161480A1, “Chemical Compounds” (GLAXOSMITHKLINE INTELLECTUAL PROPERTY DEVELOPMENT LIMITED, priority 2016, published 2019).
Where two headings read alike, the source gives them in different places.

Assays:
Class I PI3-kinases = settings: read-out: IC50 against each of the Class I PI3-kinases, cited from earlier work
CK2 protein kinase = settings: literature; cited from earlier work
PI3Kδ [1] = molecular target: T1, PI3Kδ (Homo sapiens, UniProt O00329); assay: Protein mass spectrometry: covalent adduct assessment and competition experiment; type: binding; settings: 10:1 inhibitor:protein, incubated overnight
T1 sequence (O00329 whole entry): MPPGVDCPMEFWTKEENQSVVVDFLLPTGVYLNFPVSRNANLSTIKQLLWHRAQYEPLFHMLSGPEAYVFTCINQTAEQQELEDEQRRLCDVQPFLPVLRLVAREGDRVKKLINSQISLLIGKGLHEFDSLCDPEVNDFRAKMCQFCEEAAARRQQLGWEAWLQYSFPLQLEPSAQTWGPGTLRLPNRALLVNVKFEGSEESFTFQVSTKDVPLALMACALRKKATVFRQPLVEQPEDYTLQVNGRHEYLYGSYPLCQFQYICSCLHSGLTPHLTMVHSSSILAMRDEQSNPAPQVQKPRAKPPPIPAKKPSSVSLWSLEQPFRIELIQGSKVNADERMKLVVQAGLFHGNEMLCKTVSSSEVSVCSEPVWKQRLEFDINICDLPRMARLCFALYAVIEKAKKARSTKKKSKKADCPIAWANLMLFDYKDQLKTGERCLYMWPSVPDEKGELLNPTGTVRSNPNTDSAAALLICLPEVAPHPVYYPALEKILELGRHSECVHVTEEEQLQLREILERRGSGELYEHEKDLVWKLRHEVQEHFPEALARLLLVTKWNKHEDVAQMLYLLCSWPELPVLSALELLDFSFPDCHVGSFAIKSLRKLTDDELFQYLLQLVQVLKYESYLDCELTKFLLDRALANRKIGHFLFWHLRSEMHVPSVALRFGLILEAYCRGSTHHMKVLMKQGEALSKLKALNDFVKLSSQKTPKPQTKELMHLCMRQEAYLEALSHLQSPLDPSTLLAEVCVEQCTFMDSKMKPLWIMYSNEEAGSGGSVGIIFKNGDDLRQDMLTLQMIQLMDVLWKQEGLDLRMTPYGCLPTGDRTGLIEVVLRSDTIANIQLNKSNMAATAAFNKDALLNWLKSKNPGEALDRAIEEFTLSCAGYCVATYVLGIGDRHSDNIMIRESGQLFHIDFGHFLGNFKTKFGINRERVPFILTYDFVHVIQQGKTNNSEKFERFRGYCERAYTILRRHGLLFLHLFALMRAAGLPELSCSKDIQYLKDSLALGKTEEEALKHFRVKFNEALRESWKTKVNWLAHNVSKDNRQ
T1 sequence (P27986 whole entry partner): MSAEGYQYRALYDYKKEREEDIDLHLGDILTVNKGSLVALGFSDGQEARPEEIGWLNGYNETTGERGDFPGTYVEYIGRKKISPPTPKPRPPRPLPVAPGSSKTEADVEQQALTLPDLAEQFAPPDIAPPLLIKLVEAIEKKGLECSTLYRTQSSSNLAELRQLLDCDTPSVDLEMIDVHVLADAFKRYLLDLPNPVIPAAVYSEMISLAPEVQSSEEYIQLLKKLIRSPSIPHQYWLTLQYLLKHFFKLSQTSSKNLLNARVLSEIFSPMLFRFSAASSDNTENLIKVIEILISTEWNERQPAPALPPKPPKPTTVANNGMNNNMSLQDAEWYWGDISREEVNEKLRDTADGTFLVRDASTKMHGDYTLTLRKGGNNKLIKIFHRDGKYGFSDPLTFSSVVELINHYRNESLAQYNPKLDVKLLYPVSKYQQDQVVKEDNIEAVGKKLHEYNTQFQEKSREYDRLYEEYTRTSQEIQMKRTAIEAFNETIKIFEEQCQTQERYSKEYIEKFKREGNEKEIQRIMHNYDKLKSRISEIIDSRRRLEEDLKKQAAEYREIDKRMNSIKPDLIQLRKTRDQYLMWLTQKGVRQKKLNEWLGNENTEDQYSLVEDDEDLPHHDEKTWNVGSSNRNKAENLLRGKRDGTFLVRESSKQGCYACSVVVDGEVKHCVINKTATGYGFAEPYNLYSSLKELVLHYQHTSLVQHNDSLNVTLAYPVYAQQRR
Protocol: Compounds were incubated with 1 μM protein in a 10:1 inhibitor:protein ratio in buffer containing 50 mM HEPES, pH 7.0 (NaOH), 150 mM NaCl, 10 mM MgCl2, 2.3 mM cholate, 10 μM CHAPS. After the desired time, the assays were quenched with a 10% formic acid solution, and analysed by LCMS using an Agilent 6224 TOF LC/MS equipped with Agilent 1200 Series autosampler. Analytes were separated on a Polymer Labs (Agilent) PLRP-S column (50 mm×1 mm internal diameter, 5 μm particle size). LC conditions were 0.5 mL·min^−1 flow rate, 70° C., 10 μL injection volume. Gradient elution with (A) water containing 0.2% (v/v) formic acid and (B) acetonitrile containing 0.2% (v/v) formic acid. Gradient conditions were initially 10% B, increasing to 30% after 0.5 min, and then linearly to 80% B over 4.5 min, prior to a 1.2 min flush with 100% B and then a 1.9 minute equilibration with 10% B prior to the next injection. Mass spectra were then deconvoluted using Agilent MassHunter Qualitative Analysis version B.06.00 over the mass range 70-170 kDa to obtain the intact protein mass.
A potent reversible ATP competitive inhibitor was incubated with 1 μM protein in a 10:1 inhibitor:protein ratio in buffer containing 50 mM HEPES, pH 7.0 (NaOH), 150 mM NaCl, 10 mM MgCl2, 2.3 mM cholate, 10 μM CHAPS at room temperature. […] The assay was quenched at 5 min and analysed using the procedure detailed above.

PI3Kδ [2] = molecular target: T1, PI3Kδ; assay: PI3Kδ jump dilution experiment; type: biochemical; settings: 15 min incubation, 100-fold dilution, read for 30 minutes
Protocol: Irreversibility of the PI3Kδ-Inhibitor complex, and reversibility of the non-covalent controls, was determined by jump-dilution assay as follows:
PI3Kδ enzyme was made up to a 100× assay concentration (final assay concentration=6 nM) in buffer solution (contains 50 mM HEPES pH 7.0 (NaOH), 150 mM NaCl, 10 mM MgCl2, 2.3 mM sodium cholate, 10 μM CHAPS made up in milliQ water).
100× enzyme solution was added to compound wells (20 μL/well), and incubated for 15 mins, after which point the assay was diluted 100-fold with commercially available ADP QUEST substrate solution, available from DiscoverX (calatog number: 90-0071), (3200 μL DiscoverX Reagent A, 6400 μL DiscoverX Reagent B, 1 mM ATP and 40 μM PIP2). Production of fluorescence signal was then measured immediately using a Tecan Safire II plate reader at 30 second intervals for 30 minutes (λex=544 nm, λem=590 nm).

PI3Kα = PI3Kα (Homo sapiens, UniProt P42336); assay: PI3K HTRF assay, PI3K-alpha; type: biochemical; settings: read-out: pIC50 PI3Kα (converted); also: 250 µM ATP
Sequence of PI3Kα (P42336 whole entry, species assumed): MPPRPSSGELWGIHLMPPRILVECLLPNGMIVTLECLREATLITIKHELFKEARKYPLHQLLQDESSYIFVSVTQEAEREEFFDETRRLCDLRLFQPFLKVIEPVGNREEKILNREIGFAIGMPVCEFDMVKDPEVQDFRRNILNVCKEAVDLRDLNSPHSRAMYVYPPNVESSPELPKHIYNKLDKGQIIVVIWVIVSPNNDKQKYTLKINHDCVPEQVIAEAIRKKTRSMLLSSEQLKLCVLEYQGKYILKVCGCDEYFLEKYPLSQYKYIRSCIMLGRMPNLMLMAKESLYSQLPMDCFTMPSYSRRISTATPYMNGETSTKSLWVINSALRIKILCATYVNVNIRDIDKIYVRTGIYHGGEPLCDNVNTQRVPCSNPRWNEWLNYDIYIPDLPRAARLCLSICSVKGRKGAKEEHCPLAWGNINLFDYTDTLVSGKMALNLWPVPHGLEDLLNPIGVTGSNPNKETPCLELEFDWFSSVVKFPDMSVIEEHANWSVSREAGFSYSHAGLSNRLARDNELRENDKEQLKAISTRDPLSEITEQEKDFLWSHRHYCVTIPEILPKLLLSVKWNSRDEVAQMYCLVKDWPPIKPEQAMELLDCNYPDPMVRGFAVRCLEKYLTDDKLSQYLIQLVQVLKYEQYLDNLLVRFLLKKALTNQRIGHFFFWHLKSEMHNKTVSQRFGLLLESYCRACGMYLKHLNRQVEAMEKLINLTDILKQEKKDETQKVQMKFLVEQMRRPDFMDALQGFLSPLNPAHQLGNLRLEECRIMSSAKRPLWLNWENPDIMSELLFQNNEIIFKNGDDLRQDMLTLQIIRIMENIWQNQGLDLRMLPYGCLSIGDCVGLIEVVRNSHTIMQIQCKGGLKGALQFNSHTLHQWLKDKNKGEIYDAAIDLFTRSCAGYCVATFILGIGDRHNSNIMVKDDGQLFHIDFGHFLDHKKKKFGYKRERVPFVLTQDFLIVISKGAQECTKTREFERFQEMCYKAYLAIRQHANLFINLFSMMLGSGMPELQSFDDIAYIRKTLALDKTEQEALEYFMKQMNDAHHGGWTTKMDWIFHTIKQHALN
Sequence of PI3Kα (P27986 whole entry partner, species assumed): as the sequence (P27986 whole entry partner) above
Protocol: (§1) The binding of compounds to PI3K-alpha/beta/delta/gamma is determined by homogeneous time resolved fluorescence (HTRF) assays as follows;
(§2) Briefly, solid compound is dissolved in 100% DMSO at a concentration of 2 mM. Dilutions are prepared in 100% DMSO using a 1 in 4 serial step dilution. The dilutions are transferred to black low volume Greiner assay plates ensuring that the DMSO concentration is constant across the plate at 1% (0.1 μL/well).
(§3) PI3K Reaction Buffer (contains 50 mM HEPES pH 7.0 (NaOH), 150 mM NaCl, 10 mM MgCl2, 2.3 mM sodium cholate, […] CHAPS made up in milliQ water). Fresh DTT is added at a final concentration of 1 mM on the day of use.
(§4) Enzyme solutions: 1× PI3K Assay Buffer containing: • 550 pM PI3K-Alpha enzyme (275 pM final assay concentration) • 800 pM PI3K-Beta enzyme (400 pM final assay concentration) • 3 nM PI3K-Delta enzyme (1.5 nM final assay concentration) • 10 nM PI3K-Gamma enzyme (5 nM final assay concentration)
(§5) These concentrations are optimal to achieve a signal:background of between 1.5-4.5. The enzyme solution is added to columns 1-24 (3 μL/well) and plates are incubated for 15 minutes at room temperature.
(§6) Substrate solution: 1× PI3K Assay Buffer containing: • PI3K-Alpha: 500 μM ATP, 20 μM PIP2 and 120 nM biotin-PIP3.
(§7) This is added to all wells and plates are incubated for 1 hour at room temperature.
(§8) Detection solution: PI3K Detection Buffer (contains 50 mM HEPES pH 7.0 (HCl), 150 mM NaCl, 2.3 mM sodium cholate, 10 μM CHAPS, 240 mM potassium fluoride) containing 2 mM DTT (2× final assay concentration), 90 nM GRP-1 PH domain, 300 nM Streptavidin-APC and 24 nM Europium-anti-GST (6× final assay concentrations).
(§9) This is mixed left at room temperature (protected from light).
(§10) STOP solution: PI3K STOP Buffer (contains 50 mM HEPES pH 7.0 (HCl), 150 mM NaCl, 2.3 mM sodium cholate, 10 μM CHAPS, 150 mM EDTA).
(§11) Detection solution is diluted 1:1 with STOP solution and added to all wells (3 μL/well). Plates are covered and incubated on the bench for 45-60 minutes.
(§12) Plates are read on a PerkinElmer Envision, measuring TR-FRET between the complex formed between the GST-tagged PH domain and biotinylated PIP3 which both recruit fluorophores (Europium-labelled anti-GST & Strep-APC respectively). In the […] of an inhibitor, this complex is disrupted by the competitive action of non-biotinylated PIP3 (formed in the assay by the phosphorylation of PIP2 by the kinase & ATP). From this, the ratio of acceptor/donor was calculated (λex=317 nm, Δem donor=615 nm, Δem acceptor=665 nm) and used for data analysis.

PI3Kβ = PI3Kβ (Homo sapiens, UniProt P42338); assay: PI3K HTRF assay, PI3K-beta; type: biochemical; settings: read-out: pIC50 PI3Kβ (converted); also: 400 µM ATP
Sequence of PI3Kβ (P42338 whole entry, species assumed): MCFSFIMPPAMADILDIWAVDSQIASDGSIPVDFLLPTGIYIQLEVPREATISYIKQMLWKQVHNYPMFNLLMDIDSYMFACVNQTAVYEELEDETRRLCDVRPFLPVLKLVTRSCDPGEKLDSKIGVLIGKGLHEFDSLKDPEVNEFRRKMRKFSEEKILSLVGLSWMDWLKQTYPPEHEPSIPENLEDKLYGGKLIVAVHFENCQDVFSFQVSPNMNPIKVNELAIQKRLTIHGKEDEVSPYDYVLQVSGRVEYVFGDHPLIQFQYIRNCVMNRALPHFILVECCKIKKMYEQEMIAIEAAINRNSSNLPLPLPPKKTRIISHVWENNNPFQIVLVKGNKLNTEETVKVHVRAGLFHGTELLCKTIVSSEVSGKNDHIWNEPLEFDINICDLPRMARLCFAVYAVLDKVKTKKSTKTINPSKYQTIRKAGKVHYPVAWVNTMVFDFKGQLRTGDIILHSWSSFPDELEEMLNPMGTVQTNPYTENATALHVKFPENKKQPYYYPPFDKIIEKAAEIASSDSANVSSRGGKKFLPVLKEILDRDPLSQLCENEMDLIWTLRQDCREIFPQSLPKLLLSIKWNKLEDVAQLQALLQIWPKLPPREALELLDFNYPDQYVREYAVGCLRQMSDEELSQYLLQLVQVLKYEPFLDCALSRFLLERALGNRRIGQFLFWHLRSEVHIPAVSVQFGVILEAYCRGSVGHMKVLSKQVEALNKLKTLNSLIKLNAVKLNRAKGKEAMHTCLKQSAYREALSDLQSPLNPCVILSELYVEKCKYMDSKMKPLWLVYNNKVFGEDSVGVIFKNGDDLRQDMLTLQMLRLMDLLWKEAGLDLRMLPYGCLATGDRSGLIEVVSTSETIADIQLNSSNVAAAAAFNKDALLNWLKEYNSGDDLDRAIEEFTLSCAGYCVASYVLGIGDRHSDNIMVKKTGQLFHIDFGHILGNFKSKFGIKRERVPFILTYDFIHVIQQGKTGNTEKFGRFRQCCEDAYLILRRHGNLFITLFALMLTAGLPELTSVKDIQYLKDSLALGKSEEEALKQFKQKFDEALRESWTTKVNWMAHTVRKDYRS
Sequence of PI3Kβ (P27986 whole entry partner, species assumed): as the sequence (P27986 whole entry partner) above
Protocol: as §1, §2, §3, §4, §5, §6, §7, §8, §9, §10, §11, §12

PI3Kδ [3] = molecular target: T1, PI3Kδ; assay: PI3K HTRF assay, PI3K-delta; type: biochemical; settings: read-out: pIC50 PI3Kδ (converted); also: 80 µM ATP
Protocol: as §1, §2, §3, §4, §5, §6, §7, §8, §9, §10, §11, §12

PI3Kγ = PI3Kγ (Homo sapiens, UniProt P48736); assay: PI3K HTRF assay, PI3K-gamma; type: biochemical; settings: read-out: pIC50 PI3Kγ (converted); also: 15 µM ATP
Sequence of PI3Kγ (P48736 whole entry, species assumed): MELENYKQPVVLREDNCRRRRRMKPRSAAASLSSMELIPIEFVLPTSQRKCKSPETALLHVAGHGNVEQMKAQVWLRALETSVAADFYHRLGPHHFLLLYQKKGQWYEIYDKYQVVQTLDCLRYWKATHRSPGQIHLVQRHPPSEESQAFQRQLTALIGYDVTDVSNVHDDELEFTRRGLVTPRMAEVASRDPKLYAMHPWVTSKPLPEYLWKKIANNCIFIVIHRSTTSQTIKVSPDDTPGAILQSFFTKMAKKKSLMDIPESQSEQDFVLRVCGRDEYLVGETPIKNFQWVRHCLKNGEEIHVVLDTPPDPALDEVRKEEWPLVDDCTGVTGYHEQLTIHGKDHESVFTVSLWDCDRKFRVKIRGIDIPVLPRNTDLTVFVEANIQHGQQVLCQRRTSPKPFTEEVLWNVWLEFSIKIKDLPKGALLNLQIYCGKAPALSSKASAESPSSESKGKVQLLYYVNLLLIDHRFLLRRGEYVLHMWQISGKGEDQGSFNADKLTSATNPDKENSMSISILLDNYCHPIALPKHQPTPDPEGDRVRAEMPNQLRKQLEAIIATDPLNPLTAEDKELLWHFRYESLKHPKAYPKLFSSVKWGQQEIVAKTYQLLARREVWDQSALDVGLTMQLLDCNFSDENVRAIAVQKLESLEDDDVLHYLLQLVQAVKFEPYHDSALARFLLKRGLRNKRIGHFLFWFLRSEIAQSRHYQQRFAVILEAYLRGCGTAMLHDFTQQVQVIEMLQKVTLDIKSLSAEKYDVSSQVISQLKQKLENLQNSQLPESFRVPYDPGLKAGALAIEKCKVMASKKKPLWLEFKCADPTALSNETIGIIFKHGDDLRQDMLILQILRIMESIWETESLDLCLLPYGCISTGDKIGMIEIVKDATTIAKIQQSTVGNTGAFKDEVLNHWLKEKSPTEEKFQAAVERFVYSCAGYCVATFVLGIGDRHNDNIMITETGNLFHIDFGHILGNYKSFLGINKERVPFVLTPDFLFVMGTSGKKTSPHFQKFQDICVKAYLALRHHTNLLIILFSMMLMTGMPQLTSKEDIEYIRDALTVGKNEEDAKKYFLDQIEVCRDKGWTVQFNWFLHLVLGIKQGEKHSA
Protocol: as §1, §2, §3, §4, §5, §6, §7, §8, §9, §10, §11, §12

[4] = test system: amphetamine-induced psychosis; settings: Law et al. 2012; cited from earlier work

SMILES	Covalent modification of PI3Kδ (protein mass spectrometry) (PI3Kδ [1])	Recovery of enzyme activity after jump dilution (PI3Kδ [2])	IC50 (PI3Kα) [µM]	IC50 (PI3Kβ) [µM]	IC50 (PI3Kδ [3]) [µM]	IC50 (PI3Kγ) [µM]	IC50 (Class I PI3-kinases; literature) [µM]	IC50 (Class I PI3-kinases; Fruman et al. 1998) [µM]	IC50 (CK2 protein kinase) [µM]	Efficacy in mouse model of amphetamine-induced psychosis [4]
COC[C@H]1OC(=O)c2coc3c2[C@@]1(C)C1=C(C3=O)[C@@H]2CCC(=O)[C@@]2(C)C[C@H]1OC(C)=O [Wortmannin]	–	–	–	–	–	–	0.001 to 0.01	–	–	–
O=c1cc(N2CCOCC2)oc2c(-c3ccccc3)cccc12 [LY294002]	–	–	–	–	–	–	–	15 to 20	5 to 10	–
COc1ncc(-c2cc(-c3ncc(CN4CCN(C(C)C)CC4)o3)c3cn[nH]c3c2)cc1C(=O)O [Example 2, 5-(4-(5-((4-Isopropylpiperazin-1-yl)methyl)oxazol-2-yl)-1H-indazol-6-yl)-2-methoxynicotinic acid]	no modification	Recovery of enzyme activity was observed	12.6	20	0.0126	15.8	–	–	–	–
COc1ncc(-c2cc(-c3ncc(CN4CCN(C(C)C)CC4)o3)c3cn[nH]c3c2)cc1C(=O)Oc1ccc(C(F)(F)F)cc1 [Example 6, 4-(Trifluoromethyl)phenyl 5-(4-(5-((4-isopropylpiperazin-1-yl)methyl)oxazol-2-yl)-1H-indazol-6-yl)-2-methoxynicotinate]	–	–	2	6.31	0.00398	25.1	–	–	–	–
COc1ncc(-c2cc(-c3ncc(CN4CCN(C(C)C)CC4)o3)c3cn[nH]c3c2)cc1C(=O)Oc1ccc([N+](=O)[O-])cc1 [Example 4, 4-Nitrophenyl 5-(4-(5-((4-isopropylpiperazin-1-yl)methyl)oxazol-2-yl)-1H-indazol-6-yl)-2-methoxynicotinate]	–	–	0.00631	0.0631	0.000631	1.58	–	–	–	–
COc1ncc(-c2cc(-c3ncc(CN4CCN(C(C)C)CC4)o3)c3cn[nH]c3c2)cc1C(=O)Oc1ccccc1 [Example 8, Phenyl 5-(4-(5-((4-isopropylpiperazin-1-yl)methyl)oxazol-2-yl)-1H-indazol-6-yl)-2-methoxynicotinate]	–	–	2.51	3.98	0.00631	12.6	–	–	–	–
Cc1ccccc1-n1c(Cn2cnc3c(N)ncnc32)nc2cccc(C)c2c1=O [IC87114]	–	–	–	–	–	–	–	–	–	remarkable efficacy

More lines, main results first:

Covalent modification of PI3Kδ (protein mass spectrometry) (PI3Kδ [1])	Recovery of enzyme activity after jump dilution (PI3Kδ [2])	IC50 (PI3Kα) [µM]	IC50 (PI3Kβ) [µM]	IC50 (PI3Kδ [3]) [µM]	IC50 (PI3Kγ) [µM]	SMILES	IC50 (Class I PI3-kinases; literature) [µM]	IC50 (Class I PI3-kinases; Fruman et al. 1998) [µM]	IC50 (CK2 protein kinase) [µM]	Efficacy in mouse model of amphetamine-induced psychosis [4]
–	–	1	2	0.00631	7.94	COc1ncc(-c2cc(-c3ncc(CN4CCN(C(C)C)CC4)o3)c3cn[nH]c3c2)cc1C(=O)Oc1ccccc1C(F)(F)F [Example 5, 2-(Trifluoromethyl)phenyl 5-(4-(5-((4-isopropylpiperazin-1-yl)methyl)oxazol-2-yl)-1H-indazol-6-yl)-2-methoxynicotinate]	–	–	–	–
–	–	0.0794	0.2	0.00501	3.16	COc1ncc(-c2cc(-c3ncc(CN4CCN(C(C)C)CC4)o3)c3cn[nH]c3c2)cc1C(=O)Oc1ccccc1[N+](=O)[O-] [Example 3, 2-Nitrophenyl 5-(4-(5-((4-isopropylpiperazin-1-yl)methyl)oxazol-2-yl)-1H-indazol-6-yl)-2-methoxynicotinate]	–	–	–	–
–	–	15.8	> 31.6	0.316	20	COc1ncc(-c2cc(-c3ncc(CN4CCN(C(C)C)CC4)o3)c3cn[nH]c3c2)cc1C(=O)OCC(F)(F)F [Example 11, 2,2,2-Trifluoroethyl 5-(4-(5-((4-isopropylpiperazin-1-yl)methyl)oxazol-2-yl)-1H-indazol-6-yl)-2-methoxynicotinate]	–	–	–	–
–	–	15.8	12.6	0.0501	10	COc1ccc(OC(=O)c2cc(-c3cc(-c4ncc(CN5CCN(C(C)C)CC5)o4)c4cn[nH]c4c3)cnc2OC)cc1 [Example 10, 4-Methoxyphenyl 5-(4-(5-((4-isopropylpiperazin-1-yl)methyl)oxazol-2-yl)-1H-indazol-6-yl)-2-methoxynicotinate]	–	–	–	–
–	Recovery of enzyme activity was observed	10	> 31.6	0.0398	> 31.6	COC(=O)c1cc(-c2cc(-c3ncc(CN4CCN(C(C)C)CC4)o3)c3cn[nH]c3c2)cnc1OC.O=CO [Example 1, Methyl 5-(4-(5-((4-isopropylpiperazin-1-yl)methyl)oxazol-2-yl)-1H-indazol-6-yl)-2-methoxynicotinate]	–	–	–	–
–	–	7.94	15.8	0.398	10	COc1ncc(-c2cc(-c3ncc(CN4CCN(C(C)C)CC4)o3)c3cn[nH]c3c2)cc1C(=O)Oc1ccc(C)cc1C [Example 9, 2,4-Dimethylphenyl 5-(4-(5-((4-isopropylpiperazin-1-yl)methyl)oxazol-2-yl)-1H-indazol-6-yl)-2-methoxynicotinate]	–	–	–	–
